{
  "source": "patent US20260022142A1",
  "about": "“MACROCYCLIC IMMUNOMODULATORS” (Bristol-Myers Squibb Company, priority 2022, published 2026)",
  "target": "T1, PD-1/PD-L1 interaction (PE-labeled human PD-L1-Ig binding to Jurkat cell line over-expressing human PD-1) (Homo sapiens, UniProt Q15116)",
  "T1 construct": "expressed in transfected cells; host or cells: Jurkat",
  "T1 sequence (Q15116 25-288)": "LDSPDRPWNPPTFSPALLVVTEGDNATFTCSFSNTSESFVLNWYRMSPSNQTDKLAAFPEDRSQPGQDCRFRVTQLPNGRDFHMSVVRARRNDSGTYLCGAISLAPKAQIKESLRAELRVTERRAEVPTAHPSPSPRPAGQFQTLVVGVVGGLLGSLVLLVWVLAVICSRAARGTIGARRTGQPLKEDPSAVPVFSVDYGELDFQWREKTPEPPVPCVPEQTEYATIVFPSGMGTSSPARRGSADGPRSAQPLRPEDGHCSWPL",
  "assay": "Jurkat-PD-1 Cell Binding High-Content Screening Assay (CBA)",
  "format": "cell-based",
  "settings": "Jurkat cell line over-expressing human PD-1; PE-labeled PD-L1-Ig 20 nM final; read-out: Jurkat hPD1-PDL1 IC50",
  "procedure,_shortened": "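Human PD-L1-Ig carrying a covalent PE label on its Ig tag serves as the probe, applied at 20 nM final to compound-treated (2 h, 37° C) Jurkat-hPD-1 cells in medium with 10% fetal calf serum. After one hour, fixation and nuclear staining precede high-content image analysis.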",
  "note": "pIC50: −log10 of the molar value. Bridge positions count the residues as written; N and C are the ends. Square brackets hold non-standard residues; d marks the D form. Peptide text beside a SMILES is read from it. * marks the point of attachment. ξ: configuration not given here. Phe(3-CF3) = N[C@@H](Cc1cccc(C(F)(F)F)c1)C(=O)O; Phe(4-CF3) = N[C@@H](Cc1ccc(C(F)(F)F)cc1)C(=O)O; Phe(4-COOH) = N[C@@H](Cc1ccc(C(=O)O)cc1)C(=O)O; Bip = N[C@@H](Cc1ccc(-c2ccccc2)cc1)C(=O)O; NH(CH2)14COOH = O=C(O)CCCCCCCCCCCCCCN*; Phe(3-Me) = Cc1cccc(C[C@H](N)C(=O)O)c1; Phe(4-F) = N[C@@H](Cc1ccc(F)cc1)C(=O)O; NH(CH2)12COOH = O=C(O)CCCCCCCCCCCCN*; Val(3-OH) = CC(C)(O)[C@H](N)C(=O)O; Cha = N[C@@H](CC1CCCCC1)C(=O)O; Thr(3ξ) = CC(O)[C@H](N)C(=O)O; Carboxymethyl = O=C(O)C*; Nle = CCCC[C@H](N)C(=O)O; Orn = NCCC[C@H](N)C(=O)O; Aun = NCCCCCCCCCCC(=O)O; Dab = NCC[C@H](N)C(=O)O; Nva = CCC[C@H](N)C(=O)O; Abu = CC[C@H](N)C(=O)O; AEEA = NCCOCCOCC(=O)O",
  "data": [
    {"smiles": "CCC[C@@H]1NC(=O)CSC[C@@H](C(=O)N[C@@H](CCN)C(=O)NCCOCCOCC(=O)NCCCCCCCCCCC(=O)O)NC(=O)[C@H](CCC(=O)O)NC(=O)[C@H](CO)NC(=O)[C@H](CC2CCCCC2)NC(=O)[C@H](CCN)NC(=O)[C@@H](CC(C)C)NC(=O)[C@H](CCCN)NC(=O)[C@H](Cc2ccc(OCC(=O)O)cc2)NC(=O)[C@H](Cc2ccc(-c3ccccc3)cc2)NC(=O)[C@H](Cc2ccc(OCC(=O)O)cc2)NC(=O)[C@H](Cc2cccc(C)c2)NC(=O)[C@H](CC(=O)O)NC(=O)[C@H](Cc2ccc(OCC(=O)O)cc2)NC1=O", "note": "[Compound 3807] ({CH2CO}-[Nva]Y(Carboxymethyl)D[Phe(3-Me)]Y(Carboxymethyl)[Bip]Y(Carboxymethyl)[Orn][dL][Dab][Cha]SEC[Dab][AEEA][Aun]-OH; thioether N-14)", "values": [
      {"measurement": "pIC50", "value": 7.69}
    ]},
    {"smiles": "CCCC[C@@H]1NC(=O)CSC[C@@H](C(=O)N[C@@H](CCN)C(=O)NCCOCCOCC(=O)NCCOCCOCC(=O)NCCCCCCCCCCCCC(=O)O)NC(=O)[C@H](CCC(=O)O)NC(=O)[C@H](C(C)C)NC(=O)[C@H](CC2CCCCC2)NC(=O)[C@H](CCN)NC(=O)[C@@H](CC(C)C)NC(=O)[C@H](CCCN)NC(=O)[C@H](Cc2ccc(C(=O)O)cc2)NC(=O)[C@H](Cc2ccc(-c3ccccc3)cc2)NC(=O)[C@H](Cc2ccc(C(=O)O)cc2)NC(=O)[C@H](Cc2cccc(C)c2)NC(=O)[C@H](CC(=O)O)NC(=O)[C@H](Cc2ccc(OCC(=O)O)cc2)NC1=O", "note": "[Compound 3809] ({CH2CO}-[Nle]Y(Carboxymethyl)D[Phe(3-Me)][Phe(4-COOH)][Bip][Phe(4-COOH)][Orn][dL][Dab][Cha]VEC[Dab][AEEA][AEEA]-{NH(CH2)12COOH}; thioether N-14)", "values": [
      {"measurement": "pIC50", "value": 7.81}
    ]},
    {"smiles": "Cc1cccc(C[C@@H]2NC(=O)[C@H](CC(=O)O)NC(=O)[C@H](Cc3ccc(OCC(=O)O)cc3)NC(=O)[C@H](C(C)O)NC(=O)CSC[C@@H](C(=O)N[C@@H](CCN)C(=O)NCCCCCCCCCCCCC(=O)O)NC(=O)[C@H](CO)NC(=O)[C@H](C(C)(C)O)NC(=O)[C@H](CC3CCCCC3)NC(=O)[C@H](CCN)NC(=O)[C@@H](CC(C)C)NC(=O)[C@H](CCCN)NC(=O)[C@H](Cc3ccc(OCC(=O)O)cc3)NC(=O)[C@H](Cc3ccc(-c4ccccc4)cc3)NC(=O)[C@H](Cc3ccc(C(F)(F)F)cc3)NC2=O)c1", "note": "(stereo partly drawn) [Compound 3810] ({CH2CO}-[Thr(3ξ)]Y(Carboxymethyl)D[Phe(3-Me)][Phe(4-CF3)][Bip]Y(Carboxymethyl)[Orn][dL][Dab][Cha][Val(3-OH)]SC[Dab]-{NH(CH2)12COOH}; thioether N-14)", "values": [
      {"measurement": "pIC50", "value": 7.70}
    ]},
    {"smiles": "CC[C@@H]1NC(=O)CSC[C@@H](C(=O)N[C@@H](CCN)C(=O)NCCOCCOCC(=O)N[C@@H](CCC(=O)O)C(=O)NCCCCCCCCCCCCC(=O)O)NC(=O)[C@H](CO)NC(=O)[C@H](C(C)(C)O)NC(=O)[C@H](CC2CCCCC2)NC(=O)[C@H](CCN)NC(=O)[C@@H](CC(C)C)NC(=O)[C@H](CCCN)NC(=O)[C@H](Cc2ccc(OCC(=O)O)cc2)NC(=O)[C@H](Cc2ccc(-c3ccccc3)cc2)NC(=O)[C@H](Cc2ccc(OCC(=O)O)cc2)NC(=O)[C@H](Cc2cccc(C)c2)NC(=O)[C@H](CC(=O)O)NC(=O)[C@H](Cc2ccc(OCC(=O)O)cc2)NC1=O", "note": "[Compound 3811] ({CH2CO}-[Abu]Y(Carboxymethyl)D[Phe(3-Me)]Y(Carboxymethyl)[Bip]Y(Carboxymethyl)[Orn][dL][Dab][Cha][Val(3-OH)]SC[Dab][AEEA]E-{NH(CH2)12COOH}; thioether N-14)", "values": [
      {"measurement": "pIC50", "value": 8.41}
    ]},
    {"smiles": "CCCC[C@@H]1NC(=O)CSC[C@@H](C(=O)N[C@@H](CCN)C(=O)NCCOCCOCC(=O)NCCOCCOCC(=O)NCCCCCCCCCCCCC(=O)O)NC(=O)[C@H](CO)NC(=O)[C@H](C(C)(C)O)NC(=O)[C@H](CC2CCCCC2)NC(=O)[C@H](CCN)NC(=O)[C@@H](CC(C)C)NC(=O)[C@H](CCCN)NC(=O)[C@H](Cc2ccc(OCC(=O)O)cc2)NC(=O)[C@H](Cc2ccc(-c3ccccc3)cc2)NC(=O)[C@H](Cc2ccc(OCC(=O)O)cc2)NC(=O)[C@H](Cc2cccc(C)c2)NC(=O)[C@H](CC(=O)O)NC(=O)[C@H](Cc2ccc(OCC(=O)O)cc2)NC1=O", "note": "[Compound 3812] ({CH2CO}-[Nle]Y(Carboxymethyl)D[Phe(3-Me)]Y(Carboxymethyl)[Bip]Y(Carboxymethyl)[Orn][dL][Dab][Cha][Val(3-OH)]SC[Dab][AEEA][AEEA]-{NH(CH2)12COOH}; thioether N-14)", "values": [
      {"measurement": "pIC50", "value": 7.88}
    ]},
    {"smiles": "Cc1cccc(C[C@@H]2NC(=O)[C@H](CC(=O)O)NC(=O)[C@H](Cc3ccc(OCC(=O)O)cc3)NC(=O)[C@H](CCN)NC(=O)CSC[C@@H](C(=O)N[C@@H](CCN)C(=O)NCCOCCOCC(=O)NCCOCCOCC(=O)NCCCCCCCCCCCCC(=O)O)NC(=O)[C@H](CO)NC(=O)[C@H](C(C)(C)O)NC(=O)[C@H](CC3CCCCC3)NC(=O)[C@H](CCN)NC(=O)[C@@H](CC(C)C)NC(=O)[C@H](CCCN)NC(=O)[C@H](Cc3ccc(OCC(=O)O)cc3)NC(=O)[C@H](Cc3ccc(-c4ccccc4)cc3)NC(=O)[C@H](Cc3ccc(OCC(=O)O)cc3)NC2=O)c1", "note": "[Compound 3813] ({CH2CO}-[Dab]Y(Carboxymethyl)D[Phe(3-Me)]Y(Carboxymethyl)[Bip]Y(Carboxymethyl)[Orn][dL][Dab][Cha][Val(3-OH)]SC[Dab][AEEA][AEEA]-{NH(CH2)12COOH}; thioether N-14)", "values": [
      {"measurement": "pIC50", "value": 8.16}
    ]},
    {"smiles": "Cc1cccc(C[C@@H]2NC(=O)[C@H](CC(=O)O)NC(=O)[C@H](Cc3ccc(OCC(=O)O)cc3)NC(=O)[C@H](CCN)NC(=O)CSC[C@@H](C(=O)N[C@@H](CCN)C(=O)NCCOCCOCC(=O)N[C@@H](CCC(=O)O)C(=O)NCCCCCCCCCCCCCCC(=O)O)NC(=O)[C@H](CO)NC(=O)[C@H](C(C)(C)O)NC(=O)[C@H](CC3CCCCC3)NC(=O)[C@H](CCN)NC(=O)[C@@H](CC(C)C)NC(=O)[C@H](CCCN)NC(=O)[C@H](Cc3ccc(OCC(=O)O)cc3)NC(=O)[C@H](Cc3ccc(-c4ccccc4)cc3)NC(=O)[C@H](Cc3ccc(OCC(=O)O)cc3)NC2=O)c1", "note": "[Compound 3814] ({CH2CO}-[Dab]Y(Carboxymethyl)D[Phe(3-Me)]Y(Carboxymethyl)[Bip]Y(Carboxymethyl)[Orn][dL][Dab][Cha][Val(3-OH)]SC[Dab][AEEA]E-{NH(CH2)14COOH}; thioether N-14)", "values": [
      {"measurement": "pIC50", "value": 7.27}
    ]},
    {"smiles": "Cc1cccc(C[C@@H]2NC(=O)[C@H](CC(=O)O)NC(=O)[C@H](Cc3ccc(OCC(=O)O)cc3)NC(=O)[C@H](CCN)NC(=O)CSC[C@@H](C(=O)N[C@@H](CCN)C(=O)NCCOCCOCC(=O)NCCOCCOCC(=O)NCCCCCCCCCCCCCCC(=O)O)NC(=O)[C@H](CO)NC(=O)[C@H](C(C)(C)O)NC(=O)[C@H](CC3CCCCC3)NC(=O)[C@H](CCN)NC(=O)[C@@H](CC(C)C)NC(=O)[C@H](CCCN)NC(=O)[C@H](Cc3ccc(OCC(=O)O)cc3)NC(=O)[C@H](Cc3ccc(-c4ccccc4)cc3)NC(=O)[C@H](Cc3ccc(OCC(=O)O)cc3)NC2=O)c1", "note": "[Compound 3815] ({CH2CO}-[Dab]Y(Carboxymethyl)D[Phe(3-Me)]Y(Carboxymethyl)[Bip]Y(Carboxymethyl)[Orn][dL][Dab][Cha][Val(3-OH)]SC[Dab][AEEA][AEEA]-{NH(CH2)14COOH}; thioether N-14)", "values": [
      {"measurement": "pIC50", "value": 7.66}
    ]},
    {"smiles": "COC[C@H](NC(=O)COCCOCCNC(=O)[C@H](CCN)NC(=O)[C@@H]1CSCC(=O)N[C@@H](CCN)C(=O)N[C@@H](Cc2ccc(OCC(=O)O)cc2)C(=O)N[C@@H](CC(=O)O)C(=O)N[C@@H](Cc2cccc(C)c2)C(=O)N[C@@H](Cc2ccc(OCC(=O)O)cc2)C(=O)N[C@@H](Cc2ccc(-c3ccccc3)cc2)C(=O)N[C@@H](Cc2ccc(OCC(=O)O)cc2)C(=O)N[C@@H](CCCN)C(=O)N[C@H](CC(C)C)C(=O)N[C@@H](CCN)C(=O)N[C@@H](CC2CCCCC2)C(=O)N[C@@H](C(C)(C)O)C(=O)N[C@@H](CO)C(=O)N1)C(=O)NCCCCCCCCCCCCC(=O)O", "note": "[Compound 3816] ({CH2CO}-[Dab]Y(Carboxymethyl)D[Phe(3-Me)]Y(Carboxymethyl)[Bip]Y(Carboxymethyl)[Orn][dL][Dab][Cha][Val(3-OH)]SC[Dab][AEEA]S(Me)-{NH(CH2)12COOH}; thioether N-14)", "values": [
      {"measurement": "pIC50", "value": 7.59}
    ]},
    {"smiles": "Cc1cccc(C[C@@H]2NC(=O)[C@H](CC(=O)O)NC(=O)[C@H](Cc3ccc(OCC(=O)O)cc3)NC(=O)[C@H](Cc3ccc(F)cc3)NC(=O)CSC[C@@H](C(=O)N[C@@H](CCN)C(=O)NCCOCCOCC(=O)NCCOCCOCC(=O)NCCCCCCCCCCCCC(=O)O)NC(=O)[C@H](CO)NC(=O)[C@H](C(C)(C)O)NC(=O)[C@H](CC3CCCCC3)NC(=O)[C@H](Cc3cnc[nH]3)NC(=O)[C@@H](CC(C)C)NC(=O)[C@H](CCCN)NC(=O)[C@H](Cc3ccc(OCC(=O)O)cc3)NC(=O)[C@H](Cc3ccc(-c4ccccc4)cc3)NC(=O)[C@H](Cc3ccc(OCC(=O)O)cc3)NC2=O)c1", "note": "[Compound 3817] ({CH2CO}-[Phe(4-F)]Y(Carboxymethyl)D[Phe(3-Me)]Y(Carboxymethyl)[Bip]Y(Carboxymethyl)[Orn][dL]H[Cha][Val(3-OH)]SC[Dab][AEEA][AEEA]-{NH(CH2)12COOH}; thioether N-14)", "values": [
      {"measurement": "pIC50", "value": 7.24}
    ]},
    {"smiles": "CC(C)C[C@H]1NC(=O)[C@H](CCCN)NC(=O)[C@H](Cc2ccc(OCC(=O)O)cc2)NC(=O)[C@H](Cc2ccc(-c3ccccc3)cc2)NC(=O)[C@H](Cc2ccc(OCC(=O)O)cc2)NC(=O)[C@H](Cc2cccc(C(F)(F)F)c2)NC(=O)[C@H](CC(=O)O)NC(=O)[C@H](Cc2ccc(OCC(=O)O)cc2)NC(=O)[C@H](C(C)O)NC(=O)CSC[C@@H](C(=O)N[C@@H](CCN)C(=O)NCCCCCCCCCCC(=O)O)NC(=O)[C@H](CO)NC(=O)[C@H](C(C)(C)O)NC(=O)[C@H](CC2CCCCC2)NC(=O)[C@H](CCN)NC1=O", "note": "(stereo partly drawn) [Compound 3818] ({CH2CO}-[Thr(3ξ)]Y(Carboxymethyl)D[Phe(3-CF3)]Y(Carboxymethyl)[Bip]Y(Carboxymethyl)[Orn][dL][Dab][Cha][Val(3-OH)]SC[Dab][Aun]-OH; thioether N-14)", "values": [
      {"measurement": "pIC50", "value": 8.41}
    ]}
  ]
}
